US20230192878A1, “METHODS, THERAPIES AND USES FOR TREATING CANCER” (PFIZER INC., priority 2020, published 2023)

How the values were obtained:
[1] = tested on: OPM2; assay: Soluble BCMA (sBCMA) shedding after GSI (ELISA); format: cell-based, Human; parameters: unit not given here; details: Table 6 (sBCMA in supernatant, ELISA), 24 hours
[2] = tested on: OPM2-luc; assay: BCMAxCD3 bispecific mediated cell killing with human T cells, with or without GSI; format: cell-based; details: OPM2, 1 μM GSI
Protocol: (§1) CD3^+ T cells from PBMCs (Stem Cell Technologies) were negatively selected using EasySep Human T cell enrichment kit (Stem Cell Technologies). Multiple myeloma cells expressing luciferase (MM.1S-luc, OPM2-luc, H929-luc, Molp8-luc, RPM18226-luc) were treated with 1 μM GSI […]. After 24 hours, cells were seeded with 50,000 CD3^+ pan T cells in a clear 96-well V-bottom plate. Cells were further treated with a range of BCMAxCD3 bispecific antibody concentrations with or without 1 μM GSI. 60 hours after treatment, luciferase activity in treated cells was analyzed using NeoLite reagent kit (Perkin Elmer) and acquired on VictorX multimode plate reader (Perkin Elmer). Cell viability was calculated by dividing luciferase activity of treated cells over luciferase activity of untreated control (no BCMAxCD3 bispecific antibody added).

[3] = tested on: MM.1S-luc; assay: as above; format: cell-based; details: MM.1S, 1 μM GSI
Protocol: as §1

[4] = tested on: RPMI8226; assay: as above; format: cell-based; details: RPMI8226, 1 μM GSI
Protocol: as §1

[5] = tested on: OPM2; assay: Cell surface BCMA expression after GSI, time course and washout; format: cell-based
Protocol: (§2) Multiple myeloma cells (MM.1S, OPM2, H929, Molp8, RPMI8226) were seeded in a 6-well plate at 800,000 cells/2 ml/well with GSI diluted at 1 μM in RPMI medium (with 0.1% DMSO). Cells were collected to evaluate cell surface BCMA expression at baseline, and then at 3 hours, 6 hours and 24 hours after addition of the GSI. After 24 hours of incubation with the GSI, cells were washed twice in PBS and re-plated in fresh 6-well plates. […] At the indicated time points, samples were stained with a ZombieNIR Viability dye (Biolegend) for 20 minutes at room temperature at 1 in 500 dilution in PBS, washed with PBS+2% FBS and further stained with anti-BCMA PE-labelled antibody diluted in PBS+2% FBS for 30 minutes at 4° C. Samples were acquired on BD Flow Cytometer and analyzed using FlowJo software. Dead cells were removed from the analysis by gating on ZombieNIR negative population. BCMA MFI was plotted as a histogram.

[6] = tested on: Molp8; assay: as above; format: cell-based
Protocol: as §2

[7] = tested on: RPMI8226; assay: as above; format: cell-based
Protocol: as §2

[8] = tested on: MM.1S; assay: as above; format: cell-based
Protocol: as §2

[9] = tested on: H929; assay: as above; format: cell-based
Protocol: as §2

SMILES: CCC[C@H](N[C@H]1CCc2cc(F)cc(F)c2C1)C(=O)Nc1cn(C(C)(C)CNCC(C)(C)C)cn1 [GSI, nirogacestat]
- BCMA (-PE) MFI ([1]; OPM2, GSI 0.01 nM): 6043.3
- BCMA (-PE) MFI ([1]; OPM2, GSI 0.1 nM): 8872.2
- BCMA (-PE) MFI ([1]; OPM2, GSI 1 nM): 8014
- BCMA (-PE) MFI ([1]; OPM2, GSI 2.5 nM): 7726.5
- BCMA (-PE) MFI ([1]; OPM2, GSI 5 nM): 7617.3
- BCMA (-PE) MFI ([1]; OPM2, GSI 10 nM): 6488.6
- BCMA (-PE) MFI ([1]; OPM2, GSI 25 nM): 4487.9
- BCMA (-PE) MFI ([1]; OPM2, GSI 50 nM): 3055.7
- BCMA (-PE) MFI ([1]; OPM2, GSI 100 nM): 1238.6
- BCMA (-PE) MFI ([1]; OPM2, GSI 500 nM): 23.8
- BCMA (-PE) MFI ([1]; OPM2, GSI 1000 nM): 0
- Enhancement of BCMAxCD3 bispecific antibody mediated cell killing by GSI [2]: 21 ×
- Enhancement of BCMAxCD3 bispecific antibody mediated cell killing by GSI [3]: 21 ×
- Enhancement of BCMAxCD3 bispecific antibody mediated cell killing by GSI [4]: 24 ×
- BCMA (-PE) MFI ([5]; OPM2, GSI 1 μM for 24 h, 3 h post wash): 21621
- BCMA (-PE) MFI ([5]; OPM2, GSI 1 μM for 24 h, 5 h post wash): 11050
- BCMA (-PE) MFI ([5]; OPM2, GSI 1 μM for 24 h, 24 h post wash): 2624
- BCMA (-PE) MFI ([5]; OPM2, GSI 1 μM, 3 h after GSI): 9257
- BCMA (-PE) MFI ([5]; OPM2, GSI 1 μM, 6 h after GSI): 9854
- BCMA (-PE) MFI ([5]; OPM2, GSI 1 μM, 24 h after GSI): 20592
- BCMA (-PE) MFI ([6]; Molp8, GSI 1 μM for 24 h, 3 h post wash): 7523
- BCMA (-PE) MFI ([6]; Molp8, GSI 1 μM for 24 h, 5 h post wash): 5050
- BCMA (-PE) MFI ([6]; Molp8, GSI 1 μM for 24 h, 24 h post wash): 2960
- BCMA (-PE) MFI ([6]; Molp8, GSI 1 μM, 3 h after GSI): 2461
- BCMA (-PE) MFI ([6]; Molp8, GSI 1 μM, 6 h after GSI): 3098
- BCMA (-PE) MFI ([6]; Molp8, GSI 1 μM, 24 h after GSI): 5307
- BCMA (-PE) MFI ([7]; RPMI8226, GSI 1 μM for 24 h, 3 h post wash): 6557
- BCMA (-PE) MFI ([7]; RPMI8226, GSI 1 μM for 24 h, 5 h post wash): 4437
- BCMA (-PE) MFI ([7]; RPMI8226, GSI 1 μM for 24 h, 24 h post wash): 2688
- BCMA (-PE) MFI ([7]; RPMI8226, GSI 1 μM, 3 h after GSI): 4437
- BCMA (-PE) MFI ([7]; RPMI8226, GSI 1 μM, 6 h after GSI): 4527
- BCMA (-PE) MFI ([7]; RPMI8226, GSI 1 μM, 24 h after GSI): 6340
- BCMA (-PE) MFI ([8]; GSI 1 μM for 24 h, 3 h post wash): 33509
- BCMA (-PE) MFI ([8]; GSI 1 μM for 24 h, 5 h post wash): 23906
- BCMA (-PE) MFI ([8]; GSI 1 μM for 24 h, 24 h post wash): 11170
- BCMA (-PE) MFI ([8]; GSI 1 μM, 3 h after GSI): 13690
- BCMA (-PE) MFI ([8]; GSI 1 μM, 6 h after GSI): 14920
- BCMA (-PE) MFI ([8]; GSI 1 μM, 24 h after GSI): 25602
- BCMA (-PE) MFI ([9]; H929, GSI 1 μM for 24 h, 3 h post wash): 15422
- BCMA (-PE) MFI ([9]; H929, GSI 1 μM for 24 h, 5 h post wash): 9313
- BCMA (-PE) MFI ([9]; H929, GSI 1 μM for 24 h, 24 h post wash): 8423
- BCMA (-PE) MFI ([9]; H929, GSI 1 μM, 3 h after GSI): 3653
- BCMA (-PE) MFI ([9]; H929, GSI 1 μM, 6 h after GSI): 3423
- BCMA (-PE) MFI ([9]; H929, GSI 1 μM, 24 h after GSI): 8245
